Data from US4565810A, “Derivatives of biliary acids, process for the production thereof and pharmaceutical compositions containing the same” (Lehner A.G., priority 1983, dated 1986).
Read-outs that look alike come from different tables or passages of the source.

Columns and labels:
[1] = physchem
Description: (§1) The [α]D, pKa, the retention factor and the critical micellar concentrations (CMC), important because related to the capacity to form micelles in the bile and function of the hydrophilic/lipophilic balance, have been determined on the A, B, C, D isomers of 22,23-methanate-ursodeoxycholic acid. The CMCs have been measured by the method of the solubilization of insoluble dyes such as Azulene and Orange OT (Roda et al., J. Biol. Chem., in press).
*Determined by potentiometric titration.

[2] = format: physicochemical
Description: as §1

[3] = physchem; details: c18 hplc, methanol/water; for K' (retention factor): pH 5.7
Description: as §1
**K' = Retention factor. It has been calculated from the retention times
on HPLC using as stationary phase a C18 column and as mobile phase a
mixture of methanol/H2 O 130/70; pH 5.7.

[4] = Hepatic uptake in isolated rat livers (method of Mortimore); format: in vitro ADME; details: isolated perfused liver, mean ± SD of five determinations
[5] = tested on: bile lipid secretion; test: Bile flow and bile lipid secretion in anaesthetized rats; format: in vivo, Sprague-Dawley rats; details: 50 mg i.v., bile collected for 5 h; for Bile flow: controls 0.55 ± 0.12, *** p < 0.01 vs. controls; for Cholesterol secretion: controls 1.66 ± 0.12, *** p < 0.01 vs. controls; for Phospholipid secretion: controls 6.92 ± 0.44, *** p < 0.01 vs. controls (CUDCA); for BA (bile acids) secretion: controls 61 ± 8
Description: *The control values were obtained on five rats studied under similar
conditions to the BA treated rats. Each value represents the mean plus or
minus the SD of five determinations.

[6] = biological target: human serum albumina (HSP) (Homo sapiens, UniProt P02768); test: Interaction with human serum albumin (albumin affinity constant)
human serum albumina (HSP), sequence (P02768 25-609): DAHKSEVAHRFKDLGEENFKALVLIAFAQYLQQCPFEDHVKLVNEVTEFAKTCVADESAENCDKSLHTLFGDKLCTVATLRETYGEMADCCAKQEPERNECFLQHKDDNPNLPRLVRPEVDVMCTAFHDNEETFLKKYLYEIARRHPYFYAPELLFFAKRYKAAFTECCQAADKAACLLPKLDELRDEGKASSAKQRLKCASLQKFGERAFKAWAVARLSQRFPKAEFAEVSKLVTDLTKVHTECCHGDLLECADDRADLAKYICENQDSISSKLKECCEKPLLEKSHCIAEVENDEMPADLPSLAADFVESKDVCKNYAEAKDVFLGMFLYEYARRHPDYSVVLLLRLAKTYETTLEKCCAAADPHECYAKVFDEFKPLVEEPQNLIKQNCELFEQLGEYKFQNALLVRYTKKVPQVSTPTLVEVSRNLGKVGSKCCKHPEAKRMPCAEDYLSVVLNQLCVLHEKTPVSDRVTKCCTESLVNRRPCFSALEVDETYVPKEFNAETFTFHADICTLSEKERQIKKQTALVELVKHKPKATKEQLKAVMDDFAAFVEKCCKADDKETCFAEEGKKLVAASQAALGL

Structure (SMILES) | pKa [1] | CMC (H2O) [2] | CMC (Na^+ 0.15 M) [2] | K' (retention factor) [3] | hepatic extraction ratio [4] | Bile flow [5] | Cholesterol secretion [5] | Phospholipid secretion [5] | BA (bile acids) secretion [5] | Kd [6] | pKa ([1]; pKa) | chromatographic logD ([3]; pH 5.7, K' (retention factor))
C[C@H](C1CC1C(=O)O)[C@H]1CC[C@H]2[C@@H]3[C@@H](O)C[C@@H]4C[C@H](O)CC[C@]4(C)[C@H]3CC[C@]12C (single isomer, unassigned) [Isom. B, 22,23-methanate-ursodeoxycholic acid] | 5.06 | 20 mM | 12 mM | 0.80 |  |  |  |  |  |  |  | 
C[C@H](C1CC1C(=O)O)[C@H]1CC[C@H]2[C@@H]3[C@@H](O)C[C@@H]4C[C@H](O)CC[C@]4(C)[C@H]3CC[C@]12C (single isomer, unassigned) [Isom. D, 22,23-methanate-ursodeoxycholic acid] | 5.04 | 10 mM | 6 mM | 2.05 |  |  |  |  |  |  |  | 
C[C@H](C1CC1C(=O)O)[C@H]1CC[C@H]2[C@@H]3[C@@H](O)C[C@@H]4C[C@H](O)CC[C@]4(C)[C@H]3CC[C@]12C (single isomer, unassigned) [Isom. C, 22,23-methanate-ursodeoxycholic acid] | 5.02 | 14 mM | 8 mM | 1.30 |  |  |  |  |  |  |  | 
C[C@H](C1CC1C(=O)O)[C@H]1CC[C@H]2[C@@H]3[C@@H](O)C[C@@H]4C[C@H](O)CC[C@]4(C)[C@H]3CC[C@]12C (stereo partly drawn) [CUDCA, 3α, 7β-dihydroxy-22,23-methylene-5β-cholan-24-oic acid] |  |  |  |  | 0.46 ± 0.01 | 1.68 ± 0.20 mL/h | 2.70 ± 0.14 µmol/kg/h | 9.50 ± 0.44 ^.parallel.mol kg^-1 h^- | 97 ± 9 µmol/kg/h | 14.7 µM |  | 
C[C@H](CCC(=O)O)[C@H]1CC[C@H]2[C@@H]3[C@@H](O)C[C@H]4C[C@H](O)CC[C@]4(C)[C@H]3CC[C@]12C [UDCA, 3α, 7β-dihydroxy-5α-cholan-24-oic acid, reference compound] |  | 19 mM | 11 mM |  |  | 1.08 ± 0.15 mL/h | 2.12 ± 0.09 µmol/kg/h | 6.47 ± 0.54 ^.parallel.mol kg^-1 h^- | 98 ± 7 µmol/kg/h |  | 5.06 | -0.0223
C[C@H](C1CC1C(=O)O)[C@H]1CC[C@H]2[C@@H]3[C@@H](O)C[C@@H]4C[C@H](O)CC[C@]4(C)[C@H]3CC[C@]12C (single isomer, unassigned) [Isom. A, 22,23-methanate-ursodeoxycholic acid] |  | 25 mM | 16 mM | 0.21 |  |  |  |  |  |  | 5.03 | 
